Measured values published in the supplement of paper PMC11208160.

Experiment: recombinant UMI read abundance after kanamycin selection (control-corrected) (log10(CPM+1)); higher = more efficient recombination; extreme values may be limits of the assay; sequences stand for … in AGTGCAGAGAAAATCGGCCAGTTTTCTCTGCCTGCAGTCCGCATGCCGTGGGACCCCTTGGGTTCTAACCTGTTGCCTAGATTTATGCAGCGGACTGCCTTTCTCCCAAAGTGATAAACCGG…AGGTTGGTTTCACT; site = the 11-nt donor
Method in brief: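 The measure is log10(CPM+1) for recombinant UMIs. These were PCR-amplified across the donor–target junction and sequenced after Escherichia coli carrying a donor and donor-binding-loop pair library and a target plasmid with T7-inducible IS621 bridge recombinase was plated on IPTG (0.07 mM) plus kanamycin or unselected. CPM were averaged over two replicates and scaled by control-derived factors.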
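Also: IS621 bridge recombinase in Escherichia coli cells against a fixed T5 target plasmid.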

Sequence: TGCTCACCATGGACCGGTTTTCCCGGTAATCCGTATTTGTA (site TGCTCACCTTA)
- recombinant UMI read abundance (log10): 0.0115

Sequence: TGCTGGGCATGGACCGGTTTTCCCGGTAATCCGTATTTGCC (site TGCTGGGCTGG)
- recombinant UMI read abundance (log10): 0.00658

Sequence: TGCTTATCATGGACCGGTTTTCCCGGTAATCCGTATTTGTG (site TGCTTATCTCA)
- recombinant UMI read abundance (log10): 1

Sequence: TGCTTGCCATGGACCGGTTTTCCCGGTAATCCGTATTTGAA (site TGCTTGCCTTT)
- recombinant UMI read abundance (log10): 0.0149

Sequence: TGGAAGACATGGACCGGTTTTCCCGGTAATCCGTATTTGCA (site AGGAAGACTTG)
- recombinant UMI read abundance (log10): 1.64

Sequence: TGGAAGACATGGACCGGTTTTCCCGGTAATCCGTATTTGCA (site CGGAAGACTTG)
- recombinant UMI read abundance (log10): 1.44

Sequence: TGGAAGACATGGACCGGTTTTCCCGGTAATCCGTATTTGCA (site GGGAAGACTTG)
- recombinant UMI read abundance (log10): 0

Sequence: TGGAAGACATGGACCGGTTTTCCCGGTAATCCGTATTTGCA (site TGGAAGACTTG)
- recombinant UMI read abundance (log10): 2.67

Sequence: TGGAAGTCATGGACCGGTTTTCCCGGTAATCCGTATTTGCA (site AGGAAGACTTG)
- recombinant UMI read abundance (log10): 0.00562

Sequence: TGGAAGTCATGGACCGGTTTTCCCGGTAATCCGTATTTGCA (site TGGAAGTCTTG)
- recombinant UMI read abundance (log10): 3.25

Sequence: TGGAATCCATGGACCGGTTTTCCCGGTAATCCGTATTTGTT (site AGGAATCCTAA)
- recombinant UMI read abundance (log10): 0

Sequence: TGGAATCCATGGACCGGTTTTCCCGGTAATCCGTATTTGTT (site CGGAATCCTAA)
- recombinant UMI read abundance (log10): 0

Sequence: TGGAATCCATGGACCGGTTTTCCCGGTAATCCGTATTTGTT (site GGGAATCCTAA)
- recombinant UMI read abundance (log10): 0

Sequence: TGGAATCCATGGACCGGTTTTCCCGGTAATCCGTATTTGTT (site TGGAATCCTAA)
- recombinant UMI read abundance (log10): 0

Sequence: TGGACGGCATGGACCGGTTTTCCCGGTAATCCGTATTTGGC (site TGGACGGCTGC)
- recombinant UMI read abundance (log10): 1.89

Sequence: TGGACGGCATGGACCGGTTTTCCCGGTAATCCGTATTTGGC (site TGGCCGGCTGC)
- recombinant UMI read abundance (log10): 0.327

Sequence: TGGACGGCATGGACCGGTTTTCCCGGTAATCCGTATTTGGC (site TGGGCGGCTGC)
- recombinant UMI read abundance (log10): 0

Sequence: TGGACGGCATGGACCGGTTTTCCCGGTAATCCGTATTTGGC (site TGGTCGGCTGC)
- recombinant UMI read abundance (log10): 0.392

Sequence: TGGACGTCATGGACCGGTTTTCCCGGTAATCCGTATTTGTT (site TGGACGTCTAA)
- recombinant UMI read abundance (log10): 0.483

Sequence: TGGACTACATGGACCGGTTTTCCCGGTAATCCGTATTTGAC (site AGGACTACTGT)
- recombinant UMI read abundance (log10): 0

Sequence: TGGACTACATGGACCGGTTTTCCCGGTAATCCGTATTTGAC (site CGGACTACTGT)
- recombinant UMI read abundance (log10): 0

Sequence: TGGACTACATGGACCGGTTTTCCCGGTAATCCGTATTTGAC (site GGGACTACTGT)
- recombinant UMI read abundance (log10): 0

Sequence: TGGACTACATGGACCGGTTTTCCCGGTAATCCGTATTTGAC (site TGGACTACTGT)
- recombinant UMI read abundance (log10): 1.55

Sequence: TGGACTCCATGGACCGGTTTTCCCGGTAATCCGTATTTGTT (site CGGAATCCTAA)
- recombinant UMI read abundance (log10): 0

Sequence: TGGACTCCATGGACCGGTTTTCCCGGTAATCCGTATTTGTT (site TGGACTCCTAA)
- recombinant UMI read abundance (log10): 0.214

Sequence: TGGAGCTCATGGACCGGTTTTCCCGGTAATCCGTATTTGCG (site TGGAGCTCTCG)
- recombinant UMI read abundance (log10): 2.13

Sequence: TGGATACCATGGACCGGTTTTCCCGGTAATCCGTATTTGCG (site TGGATACCTCG)
- recombinant UMI read abundance (log10): 0

Sequence: TGGCCTTCATGGACCGGTTTTCCCGGTAATCCGTATTTGGT (site TAGCCTTCTAC)
- recombinant UMI read abundance (log10): 0

Sequence: TGGCCTTCATGGACCGGTTTTCCCGGTAATCCGTATTTGGT (site TCGCCTTCTAC)
- recombinant UMI read abundance (log10): 1.02

Sequence: TGGCCTTCATGGACCGGTTTTCCCGGTAATCCGTATTTGGT (site TGGCCTTCTAC)
- recombinant UMI read abundance (log10): 0.00327

Sequence: TGGCCTTCATGGACCGGTTTTCCCGGTAATCCGTATTTGGT (site TTGCCTTCTAC)
- recombinant UMI read abundance (log10): 0.00662

Sequence: TGGCTGCCATGGACCGGTTTTCCCGGTAATCCGTATTTGGT (site TGGCTGCCTAC)
- recombinant UMI read abundance (log10): 0.0264
